Results published in US20190110981A1, “Cannabinoid Patch” (LIFE TECH GLOBAL, LLC, priority 2017, published 2019).

Tests used:
[1] = as measured at room temperature; cited from earlier work
[2] = In vitro transdermal flux, human cadaver skin and Franz diffusion cell; format: in vitro ADME; conditions: for Flux over the course of about 20 hours: monolithic PIB patch with oil containing CBD/THC 1:1, Franz diffusion cell (FIG. 3)
From the text: FIG. 1. In vitro cumulative flux (micrograms/cm^2) of cannabidiol (CBD) through skin versus time (hours).
FIG. 2. In vitro flux of tetrahydrocannabinol (THC) from ethanol/water, at each of the indicated ratios of ethanol/water.
The disclosure provides a graph of transdermal flux (FIG. 3). […] Alternatively, the oil contains CBD/THC in a 1:1 ratio (wt./wt.).
The following concerns reservoir patches. The composition inside the reservoir can have the consistency of a paste, but in an alternative embodiment, it can have the consistency of an oil, or it can have the consistency of a liquid, or it can have the consistency of a slurry. Parameters for FIG. 2 are as follows. Flux was allowed to occur for 24 hours, and FIG. 2 provides the value at 24 hours, […] The layers are 30 cm square and the hydrogel is one cm cubed or one milliliter. The layers have microporous membrane with […] pore size. The layers have occlusive heat seal around edges. There is a protective release liner. The embodiment can be made with or without silicone adhesive.

In the case of `O=S(=O)(O)CCN1CCN(CCS(=O)(=O)O)CC1` [PIPES], the pKa [1] is listed as 6.8.
For `CCCCCc1cc(O)c2c(c1)OC(C)(C)[C@@H]1CCC(C)=C[C@@H]21` [THC, delta-9-tetrahydrocannabinol], the “THC flux by solvent in reservoir patch” value ([2]; THC oil mixed with ethanol and with EtOH/water of different ratios) was “highest flux from pure ethanol”, the “Flux over the course of about 20 hours” value ([2]; human cadaver skin) was “at least 1.0 micrograms per cm^2” and the “THC flux from ethanol in reservoir patch relative to monolithic patch” value ([2]; reservoir patch, THC oil mixed with ethanol (FIG. 2)) was 4 times. For the same compound, the “Cumulative flux of THC” value ([2]; reservoir patch, saturated ethanol/water about 60/40 with 25% THC oil, value at 24 hours (FIG. 2)) was “at least 50 micrograms THC per cm^2”.
In the case of `C=C(C)[C@@H]1CCC(C)=C[C@H]1c1c(O)cc(CCCCC)cc1O` [CBD, cannabidiol], the “Flux of CBD from matrix with hemp oil of 92% CBD relative to adhesive matrix with crystalline CBD” value ([2]; PIB monolithic patch, 15% CBD oil vs 15% crystalline CBD (FIG. 1)) is reported as “about 5 times”, the “Flux over the course of about 20 hours” value ([2]; human cadaver skin) is reported as “at least 4 micrograms per cm^2” and the “Cumulative flux of CBD” value ([2]; over ten hours, dermal patch with PIB and about 15% CBD oil, human cadaver skin, Franz diffusion cell) is reported as “at least 20 micrograms CBD per cm^2”.
In the case of `CCCCCCCC/C=C\CCCCCCCC(=O)O` [oleic acid], the “Effect of enhancer on transdermal delivery of CBD from PIB” value [2] is reported as “double”.
For `CCCCCCCCCCCCN1CCCCCC1=O` [azone, 1-dodecylazacycloheptane-2-one], the “Effect of enhancer on transdermal delivery of CBD from PIB” value [2] was “double”.
In the case of `O=S(=O)(O)CCNC1CCCCC1` [CHES], the pKa [1] is listed as 9.5.
